In the NIST ThermoML archive (doi:10.1016/j.fluid.2005.04.008):
Numbers after ± are expanded uncertainties.

Assay: xn = mol fraction of the nth substance listed
Conditions: Liquid

CCCCCCCCCC=CC=CC=CC=CC=CC=CC(=O)OCC [docosahexaenoic acid, ethyl ester] + O=C=O
mass density (313 K, x2 = 0.5325): 912.2 ± 2.6 kg/m3 | mass density (313 K, x2 = 0.6836): 915.9 ± 2 kg/m3 | mass density (313 K, x2 = 0.7773): 919.1 ± 1.7 kg/m3 | mass density (313 K, x2 = 0.849): 920.8 ± 1.5 kg/m3 | mass density (313 K, x2 = 0.8795): 921.3 ± 1.4 kg/m3 | mass density (313 K, x2 = 0.8972): 922.1 ± 1.4 kg/m3 | mass density (313 K, x2 = 0.9121): 923 ± 1.3 kg/m3 | mass density (313 K, x2 = 0.9222): 923.7 ± 1.3 kg/m3 | mass density (313 K, x2 = 0.9266): 923.8 ± 1.3 kg/m3 | mass density (313 K, x2 = 0.9335): 924 ± 1.3 kg/m3 | mass density (313 K, x2 = 0.9366): 923.9 ± 1.3 kg/m3 | mass density (313 K, x2 = 0.9392): 924.1 ± 1.3 kg/m3 | mass density (313 K, x2 = 0.9443): 921.9 ± 1.4 kg/m3 | mass density (333 K, x2 = 0.5583): 894.9 ± 2.5 kg/m3 | mass density (333 K, x2 = 0.6793): 896.5 ± 2.1 kg/m3 | mass density (333 K, x2 = 0.7551): 898.4 ± 1.8 kg/m3 | mass density (333 K, x2 = 0.7811): 899.5 ± 1.8 kg/m3 | mass density (333 K, x2 = 0.8154): 900 ± 1.7 kg/m3 | mass density (333 K, x2 = 0.8278): 900.5 ± 1.6 kg/m3 | mass density (333 K, x2 = 0.8411): 900.7 ± 1.6 kg/m3 | mass density (333 K, x2 = 0.8612): 900.8 ± 1.6 kg/m3 | mass density (333 K, x2 = 0.8784): 901 ± 1.5 kg/m3 | mass density (333 K, x2 = 0.8918): 901.4 ± 1.5 kg/m3 | mass density (333 K, x2 = 0.9022): 901.3 ± 1.5 kg/m3 | mass density (333 K, x2 = 0.9114): 900.5 ± 1.5 kg/m3 | mass density (333 K, x2 = 0.9221): 899 ± 1.6 kg/m3 | mass density (333 K, x2 = 0.9419): 887.6 ± 1.7 kg/m3

CCCCCCCCCC=CC=CC=CC=CC=CC(=O)OCC [eicosapentaenoic acid, ethyl ester] + O=C=O
mass density (313 K, x2 = 0.5962): 907.6 ± 1.6 kg/m3 | mass density (313 K, x2 = 0.6865): 911.9 ± 1.5 kg/m3 | mass density (313 K, x2 = 0.7582): 915.2 ± 1.4 kg/m3 | mass density (313 K, x2 = 0.8265): 916.8 ± 1.3 kg/m3 | mass density (313 K, x2 = 0.8496): 916.3 ± 1.3 kg/m3 | mass density (313 K, x2 = 0.8708): 916 ± 1.3 kg/m3 | mass density (313 K, x2 = 0.8826): 916.1 ± 1.3 kg/m3 | mass density (313 K, x2 = 0.8921): 916 ± 1.3 kg/m3 | mass density (313 K, x2 = 0.9008): 915.5 ± 1.3 kg/m3 | mass density (313 K, x2 = 0.9091): 915.2 ± 1.3 kg/m3 | mass density (313 K, x2 = 0.9184): 913.7 ± 1.4 kg/m3 | mass density (313 K, x2 = 0.9264): 912.3 ± 1.4 kg/m3 | mass density (313 K, x2 = 0.9402): 906.6 ± 1.5 kg/m3 | mass density (333 K, x2 = 0.2842): 886.2 ± 2 kg/m3 | mass density (333 K, x2 = 0.5005): 888.6 ± 1.8 kg/m3 | mass density (333 K, x2 = 0.5996): 890.9 ± 1.7 kg/m3 | mass density (333 K, x2 = 0.6826): 892.9 ± 1.6 kg/m3 | mass density (333 K, x2 = 0.7423): 894.3 ± 1.6 kg/m3 | mass density (333 K, x2 = 0.7876): 895.3 ± 1.5 kg/m3 | mass density (333 K, x2 = 0.8186): 895.6 ± 1.5 kg/m3 | mass density (333 K, x2 = 0.8338): 895.5 ± 1.5 kg/m3 | mass density (333 K, x2 = 0.8541): 895.1 ± 1.5 kg/m3 | mass density (333 K, x2 = 0.8766): 894.8 ± 1.5 kg/m3 | mass density (333 K, x2 = 0.8927): 894.1 ± 1.5 kg/m3 | mass density (333 K, x2 = 0.9043): 892.8 ± 1.5 kg/m3 | mass density (333 K, x2 = 0.916): 890.3 ± 1.6 kg/m3 | mass density (333 K, x2 = 0.9324): 879.8 ± 1.8 kg/m3

CCCCC/C=C\C/C=C\CCCCCCCC(=O)OC [methyl (Z,Z)-9,12-octadecadienate] + O=C=O
mass density (313 K, x2 = 0.5217): 879.7 ± 1.6 kg/m3 | mass density (313 K, x2 = 0.6288): 881.5 ± 1.6 kg/m3 | mass density (313 K, x2 = 0.7185): 884.5 ± 1.6 kg/m3 | mass density (313 K, x2 = 0.758): 888.1 ± 1.6 kg/m3 | mass density (313 K, x2 = 0.8057): 890.6 ± 1.5 kg/m3 | mass density (313 K, x2 = 0.8337): 892.9 ± 1.5 kg/m3 | mass density (313 K, x2 = 0.8624): 895.4 ± 1.5 kg/m3 | mass density (313 K, x2 = 0.8862): 896.8 ± 1.5 kg/m3 | mass density (313 K, x2 = 0.8984): 895.2 ± 1.5 kg/m3 | mass density (313 K, x2 = 0.9209): 892.9 ± 1.5 kg/m3 | mass density (313 K, x2 = 0.9289): 890.5 ± 1.6 kg/m3 | mass density (313 K, x2 = 0.9388): 885.7 ± 1.7 kg/m3 | mass density (333 K, x2 = 0.6128): 868.3 ± 1.7 kg/m3 | mass density (333 K, x2 = 0.7016): 870.8 ± 1.7 kg/m3 | mass density (333 K, x2 = 0.791): 872.8 ± 1.7 kg/m3 | mass density (333 K, x2 = 0.8255): 874.1 ± 1.7 kg/m3 | mass density (333 K, x2 = 0.852): 875 ± 1.7 kg/m3 | mass density (333 K, x2 = 0.8742): 874.1 ± 1.7 kg/m3 | mass density (333 K, x2 = 0.8981): 873.4 ± 1.7 kg/m3 | mass density (333 K, x2 = 0.9048): 872.7 ± 1.7 kg/m3 | mass density (333 K, x2 = 0.9102): 871.7 ± 1.7 kg/m3 | mass density (333 K, x2 = 0.9156): 870.5 ± 1.7 kg/m3 | mass density (333 K, x2 = 0.9193): 870 ± 1.8 kg/m3 | mass density (333 K, x2 = 0.9264): 864.7 ± 1.9 kg/m3 | mass density (333 K, x2 = 0.934): 860.3 ± 2.3 kg/m3 | mass density (333 K, x2 = 0.9509): 838.1 ± 2.6 kg/m3

CCCCCCCC/C=C\CCCCCCCC(=O)OC [methyl cis-9-octadecenoate] + O=C=O
mass density (313 K, x2 = 0.4876): 868.6 ± 1.7 kg/m3 | mass density (313 K, x2 = 0.5963): 874.2 ± 1.7 kg/m3 | mass density (313 K, x2 = 0.7077): 878.5 ± 1.6 kg/m3 | mass density (313 K, x2 = 0.7931): 884.3 ± 1.6 kg/m3 | mass density (313 K, x2 = 0.833): 885.5 ± 1.6 kg/m3 | mass density (313 K, x2 = 0.8595): 887.5 ± 1.5 kg/m3 | mass density (313 K, x2 = 0.8736): 887.5 ± 1.5 kg/m3 | mass density (313 K, x2 = 0.8891): 886.9 ± 1.5 kg/m3 | mass density (313 K, x2 = 0.9111): 886.4 ± 1.6 kg/m3 | mass density (313 K, x2 = 0.9231): 885.1 ± 1.6 kg/m3 | mass density (313 K, x2 = 0.9312): 882.7 ± 1.6 kg/m3 | mass density (313 K, x2 = 0.9387): 881.2 ± 1.6 kg/m3 | mass density (333 K, x2 = 0.6086): 857.1 ± 1.8 kg/m3 | mass density (333 K, x2 = 0.6969): 859.9 ± 1.8 kg/m3 | mass density (333 K, x2 = 0.7916): 862.3 ± 1.7 kg/m3 | mass density (333 K, x2 = 0.8255): 864.4 ± 1.7 kg/m3 | mass density (333 K, x2 = 0.8509): 865.8 ± 1.7 kg/m3 | mass density (333 K, x2 = 0.8813): 867.4 ± 1.7 kg/m3 | mass density (333 K, x2 = 0.8901): 864.5 ± 1.7 kg/m3 | mass density (333 K, x2 = 0.9072): 864.9 ± 1.7 kg/m3 | mass density (333 K, x2 = 0.9167): 863.2 ± 1.7 kg/m3 | mass density (333 K, x2 = 0.9213): 863.1 ± 1.8 kg/m3 | mass density (333 K, x2 = 0.9282): 859.2 ± 1.8 kg/m3 | mass density (333 K, x2 = 0.9341): 858.9 ± 1.9 kg/m3 | mass density (333 K, x2 = 0.943): 851.6 ± 2.1 kg/m3
